Laboratory results as given in US7563791B2, “Pyrrolotriazine derivatives useful for treating hyper-proliferative disorders and diseases associated with angiogenesis” (Bayer Pharmaceuticals Corporation, priority 2004, dated 2009).

Experiments:
Assay type in all cases: cell-based
[1] = test system: VEGF stimulated Phospho-ERK in HUVEC; assay: Growth factor stimulated p-ERK assay in HUVECs (VEGF stimulation, ERK1/2 Bioplex); conditions: Homo sapiens, @ 100 nM, compound 2 hrs, then 50 ng/ml VEGF 10 min
How it was run: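 HUVECs in serum-free RPMI 1640/0.1% BSA pretreated with compound 2 hrs, then stimulated 10 min with 50 ng/ml VEGF (or bFGF). Lysate phospho-ERK1/2 quantified by bead-based Bio-Plex immunoassay on Luminex.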

[2] = test system: HCT116 cells; assay: Tumor cell proliferation (Alamar Blue), HCT116; conditions: Homo sapiens, HCT-116, 72 h
How it was run: (§1)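 Cells seeded at 3.0×10^3/well in RPMI with 10% FBS for 16 h, then treated with compound (added medium held 40 μM to 18 nM compound, 0.4% DMSO) for 72 h at 37 °C, 5% CO2. Viability by Alamar Blue, 3 h, fluorescence 544/590 nm. IC50 by linear regression of log concentration versus percent inhibition.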

[3] = test system: MDA-MB-231 cells; assay: Tumor cell proliferation (Alamar Blue), MDA-MB-231; conditions: Homo sapiens, MDA-MB-231, 72 h
How it was run: as §1

[4] = test system: histone 3 phosphorylation in colon carcinoma (HCT116); assay: p-Histone3 assay: inhibition of histone 3 phosphorylation in HCT116; conditions: Homo sapiens, HCT-116, 24 h, HCT116, 24 hours compound treatment
Procedure: Compounds were assayed for the inhibition of histone 3 phosphorylation in colon carcinoma (HCT116). Briefly, 20,000 cells/well were seeded in a 96-well black-walled, poly-d-lysine plates in RPMI+10% FBS and incubated at 37° C. in 5% CO2 overnight. The following day, the cells were treated with compounds for 24 hours at 37° C. Following compound treatment; plates were centrifuged at 1000 rpm for 2 minutes and washed twice with 100 μl of cold sterile TBS. Cells were then fixed with cold 3.7% formaldehyde in TBS (4° C. for 1 hour) and then permeabolized with 0.1% Triton-X-100 in TBS (room temperature for 30 minutes). Plates were then washed with of 0.25% BSA-TBS and blocked with BSA solution for 1 hour at room temperature while shaking. The supernatant was removed and replaced with diluted primary antibody (anti-phospho-histone 3, serine 10, Cell Signaling) at 1:250 in 0.25% BSA-TBS and incubated overnight at 4° C. The plates were washed and treated with diluted secondary antibody (anti-rabbit Eu-labeled) at 1:10000 in 0.25% BSA-TBS (room temperature for 1 hour). The antibody solution was removed from each well and washed eight times. The wash buffer was replaced with 50 μl pre-warmed enhancement solution and mixed on the orbital shaker for 10 minutes. Fluorescence was detected with a Victor V Fluorescence Detector. The data are expressed as percent inhibition: % inhibition=100−((Signal with inhibitor-background)/(Signal without inhibitor-background))×100.

| Compound | IC50 [4] | IC50 ([4]; bound given in μM) | other results |
| --- | --- | --- | --- |
| CNC(=O)c1cn2ncnc(N)c2c1-c1ccc(NC(=O)Nc2cc(C(F)(F)F)ccc2F)cc1 [Example 59, 4-amino-5-{4-[({[2-fluoro-5-(trifluoromethyl)phenyl]amino}carbonyl)amino]phenyl}-N-methylpyrrolo[2,1-f][1,2,4]triazine-6-carboxamide] | > 0.5 µM | < 1 µM | inhibition at 0.1 µM [1]: > 50%; IC50 [2]: > 0.5 µM; IC50 ([2]; bounds given in μM): < 1.5 µM; IC50 [3]: > 0.5 µM; IC50 ([3]; bounds given in μM): < 1.5 µM |
| Nc1ncnn2cc(C(=O)NCC(F)(F)F)c(-c3ccc(NC(=O)Nc4cccc(CC(F)(F)F)c4)cc3)c12 [Example 92, 4-amino-N-(2,2,2-trifluoroethyl)-5-{4-[({[3-(2,2,2-trifluoroethyl)phenyl]amino}carbonyl)amino]phenyl}pyrrolo[2,1-f][1,2,4]triazine-6-carboxamide] | < 0.5 µM |  |  |
| Nc1ncnn2cc(C(=O)NCC(F)(F)F)c(-c3ccc(NC(=O)Nc4cccc(C(F)(F)F)n4)cc3)c12 [Example 139, 4-amino-N-(2,2,2-trifluoroethyl)-5-{4-[({[6-(trifluoromethyl)pyridin-2-yl]amino}carbonyl)amino]phenyl}pyrrolo[2,1-f][1,2,4]triazine-6-carboxamide] | < 0.5 µM |  |  |
| CC(C)(C)NC(=O)c1cn2ncnc(N)c2c1-c1ccc(NC(=O)Nc2cccc(C(F)(F)F)n2)cc1 [Example 164, 4-amino-N-(tert-butyl)-5-{4-[({[6-(trifluoromethyl)pyridin-2-yl]amino}carbonyl)amino]phenyl}pyrrolo[2,1-f][1,2,4]triazine-6-carboxamide] | < 0.5 µM |  |  |
| CC(C)(C)CNC(=O)c1cn2ncnc(N)c2c1-c1ccc(NC(=O)Nc2cccc(C(F)(F)F)n2)cc1 [Example 165, 4-amino-N-(2,2-dimethylpropyl)-5-{4-[({[6-(trifluoromethyl)pyridin-2-yl]amino}carbonyl)amino]phenyl}pyrrolo[2,1-f][1,2,4]triazine-6-carboxamide] | < 0.5 µM |  |  |
| COCCNC(=O)c1cn2ncnc(N)c2c1-c1ccc(NC(=O)Nc2cc(C(F)(F)F)ccc2F)cc1 [Example 167, 4-amino-5-{4-[({[2-fluoro-5-(trifluoromethyl)phenyl]amino}carbonyl)amino]phenyl}-N-(2-methoxyethyl)pyrrolo[2,1-f][1,2,4]triazine-6-carboxamide] | > 0.5 µM | < 1 µM |  |
| CCOC(=O)c1cn2ncnc(N)c2c1-c1ccc(NC(=O)Nc2cccc(Oc3ccccc3)c2)cc1 [Example 171, ethyl 4-amino-5-[4-({[(3-phenoxyphenyl)amino]carbonyl}amino)phenyl]pyrrolo[2,1-f][1,2,4]triazine-6-carboxylate] | < 0.5 µM |  |  |
| CCNC(=O)c1cn2ncnc(N)c2c1-c1ccc(NC(=O)Nc2cccc(C(F)(F)F)n2)cc1 [Example 176, 4-amino-N-ethyl-5-{4-[({[6-(trifluoromethyl)pyridin-2-yl]amino}carbonyl)amino]phenyl}pyrrolo[2,1-f][1,2,4]triazine-6-carboxamide] | < 0.5 µM |  |  |
| Nc1ncnn2cc(C(=O)NC3CC3)c(-c3ccc(NC(=O)Nc4cccc(C(F)(F)F)n4)cc3)c12 [Example 177, 4-amino-N-cyclopropyl-5-{4-[({[6-(trifluoromethyl)pyridin-2-yl]amino}carbonyl)amino]phenyl}pyrrolo[2,1-f][1,2,4]triazine-6-carboxamide] | < 0.5 µM |  |  |
| CSCCCNC(=O)c1cn2ncnc(N)c2c1-c1ccc(NC(=O)Nc2cccc(C(F)(F)F)n2)cc1 [Example 204, 4-amino-N-[3-(methylthio)propyl]-5-{4-[({[6-(trifluoromethyl)pyridin-2-yl]amino}carbonyl)amino]phenyl}pyrrolo[2,1-f][1,2,4]triazine-6-carboxamide] | > 0.5 µM | < 1 µM |  |
